Measured values reported in patent publication US9441012B2, “Fluorinated epoxyketone-based compounds and uses thereof as proteasome inhibitors” (FLUORINOV PHARMA INC., priority 2012, dated 2016).

Tests used:
[1] = test system: primary CD138+ myeloma cells; conditions: compared with Example 1; Trudel et al. ASH 2009; cited from earlier work
KMS-11 = test: Cell viability assay (MTS); format: cell-based; conditions: Homo sapiens, 72 hours, mean ± standard deviation
Description: (§1) Human multiple myeloma cell lines 8226, H929, JJN3, KMH11, KMS11, KMS18, LP1, MM1S, OPM2 and U266 were grown in Iscove modified Dulbecco's medium (IMDM). Human leukemia cell lines K562, OCI-AML2 and U937 were cultured in RPMI-1640 medium. Primary peripheral blood mononuclear cells were isolated from multiple myeloma patients by Ficoll density gradient centrifugation and bone marrow aspirates were obtained from multiple myeloma patients at the Princess Margaret Cancer Centre of the University Health Network (UHN; Toronto, ON, Canada). Primary cells were cultured in IMDM. The collection and use of human tissue for this study were approved by the UHN institutional ethics review board. All cell culture media were obtained from the Ontario Cancer Institute Tissue Culture Media Facility (Toronto, ON, Canada) and were supplemented with 10% fetal calf serum, […] (Hyclone, Logan, Utah). All cells were grown in a humidified incubator at 37° C. with 5% CO2.
(§2) Cellular viability was primarily assessed by 3-(4,5-dimethylthiazol-2-yl)-5-(3-carboxymethoxyphenyl)-2-(4-sulfophenyl)-2H-tetrazolium (MTS) assay according to the manufacturer's instructions (Promega; Madison, Wis.). Cells were first seeded at a density of 10,000 cells per well in tissue culture-treated 96-well plates. Two hours after seeding, cells were treated with compounds for 72 hours at concentrations as indicated. As a control, cells were treated with DMSO alone in every assay plate. Following treatment and the MTS assay, cell viability was independently confirmed by reading the optical density (O.D.) at 490 nm and by exclusion of trypan blue stain (Invitrogen; Burlington, ON, Canada). The viability of primary mononuclear cells was determined by staining with Annexin V.
(§3) Table 9 summarizes data obtained for representative compounds of Formula I for cell viability and CT-L proteasome activity using OCI-AML-2 and KMS-11 cell lines.

OCI-AML-2 = test: Cell viability assay (MTS); format: cell-based; conditions: Homo sapiens, OCI-AML2, 72 hours, mean ± standard deviation
Description: as §1, §2, §3

[2] = test system: chymotrypsin-like (CT-L) proteasome activity, KMS-11; test: Proteasome enzymatic activity (tumor cell lysates); format: biochemical, human; conditions: KMS-11 cell lysate; mean ± standard deviation
Description: (§4) Cells were harvested by centrifugation at 1,200 rpm at room temperature. Cell pellets were washed with PBS and lysed with assay lysis buffer (50 mM HEPES (N-2-hydroxyethylpiperazine-N′-2-ethanesulfonic acid), pH 7.5; 150 mM NaCl; 1% Triton X-100; 2 mM ATP). Cell lysates were incubated on ice for 30 minutes, mixed by vortex every 5 minutes, and then centrifuged at 12,000 g for 10 minutes. The supernatant was transferred to a 96-well plate. For each assay, 10 μg of total protein were incubated for 1 hour at 37° C. with increasing concentrations (1 nM to 10 μM) of test compound diluted in assay buffer (50 mM Tris-HCl (tris(hydroxymethyl)aminomethane-HCl), pH 7.5; 150 mM NaCl). DMSO alone was used as a control in every assay plate. After incubation, a specific fluorogenic proteasome substrate was added to each assay reaction at a final concentration of 40 μM in a total volume of 100 μL. N-Succinyl-Leu-Leu-Val-Tyr-7-amino-4-methylcoumarin (Suc-Leu-Leu-Val-Tyr-AMC) was used for measuring chymotrypsin-like (CT-L) activity, t-butoxycarbonyl-Leu-Arg-Arg-7-amino-4-methylcoumarin (Boc-Leu-Arg-Arg-AMC) for trypsin-like (T-L) activity, and benzyloxycarbonyl-L-leucyl-L-leucyl-L-glutamyl-7-amino-4-methylcoumarin (Z-Leu-Leu-Glu-AMC) for caspase-like (C-L) activity. The excitation wavelength was set at 360 nm and the fluorescence emission wavelength of AMC was detected at 460 nm. The fluorescence of free AMC released during the enzymatic reaction was measured with a SpectraMax M5 fluorescent spectrophotometric plate reader (Molecular Devices, Sunnyvale, Calif.). AMC release rate was measured at 37° C. in a kinetic mode, recording every 5 minutes for 30 minutes. Experiments were performed in triplicate and repeated at least twice.
as §3

[3] = test system: chymotrypsin-like (CT-L) proteasome activity, OCI-AML-2; test: Proteasome enzymatic activity (tumor cell lysates); format: biochemical, human; conditions: OCI-AML-2 cell lysate; mean ± standard deviation
Description: as §4, §3

SMILES | therapeutic index between CD138+ and CD-138− in patient samples [1] | IC50 (KMS-11) [nM] | IC50 (OCI-AML-2) [nM] | IC50 [2] [nM] | IC50 [3] [nM]
CC(C)C[C@H](NC(=O)[C@H](CCc1ccccc1)NC(=O)CN1CCOCC1)C(=O)N[C@@H](Cc1ccccc1)C(=O)N[C@@H](CC(C)C)C(=O)[C@@]1(C)CO1 [carfilzomib] | much narrower therapeutic index |  |  |  | 
CC(C)C[C@H](NC(=O)[C@H](COC(F)F)NC(=O)CN1CCOCC1)C(=O)N[C@@H](CC(C)C)C(=O)[C@@]1(C)CO1 [Example 28, (2S)-2-[[(2S)-3-(difluoromethoxy)-2-[(2-morpholino-acetyl)amino]propa-noyl]amino]-4-methyl-N-[(1S)-3-methyl-1-[(2R)-2-methyloxirane-2-carbonyl]butyl]pentanamide] |  | 100 ± 18.7 | 132 ± 87.5 | 575 ± 62.7 | 556 ± 123
CC(C)C[C@H](NC(=O)[C@H](COC(F)F)NC(=O)[C@H](COC(F)F)NC(=O)CN1CCOCC1)C(=O)[C@@]1(C)CO1 [Example 33, (2S)-3-(difluoromethoxy)-N-[(1S)-1-(difluoromethoxymethyl)-2-[[(1S)-3-methyl-1-[(2R)-2-methyloxirane-2-carbonyl]butyl]amino]-2-oxo-ethyl]-2-[(2-morpholinoacetyl)amino]propanamide] |  | 46.7 ± 9.89 | 140 ± 53.5 | 704 ± 173 | 599 ± 77.7
CC(C)C[C@H](NC(=O)[C@H](COC(F)F)NC(=O)CN1CCOCC1)C(=O)N[C@@H](Cc1ccccc1)C(=O)[C@@]1(C)CO1 [Example 27, (2S)-N-[(1S)-1-benzyl-2-[(2R)-2-methyloxiran-2-yl]-2-oxo-ethyl]-2-[[(2S)-3-(difluoromethoxy)-2-[(2-morpholinoacetyl)amino]propanoyl]amino]-4-methylpentanamide] |  | 250 ± 25.9 | 401 ± 275 | 742 ± 83.7 | 600 ± 57.5
